{
  "source": "patent US20250041282A1",
  "about": "“METHOD FOR TREATING INFLAMMATORY PULMONARY DISEASE” (FU JEN CATHOLIC UNIVERSITY, priority 2021, published 2025)",
  "key": {"RAW264.7 macrophages [1]": {"tested_on": "RAW264.7 macrophages", "test": "Cytokine protein array analysis of conditioned culture media", "assay_type": "cell-based, mouse", "procedure": "Cytokine array analysis was performed according to the procedure recommended by the Raybio mouse cytokine antibody array 4 (RayBiotech, Inc. Peachtree Corners, GA). This cytokine protein array was used to simultaneously determine the relative levels of 40 different cytokines, chemokines, and acute-phase proteins in a single sample. One hundred microliters of cell culture medium was used for each sample. The signal intensity in the membrane of the cytokine protein array was measured by using ImageJ software and is presented as a heat map drawn by using MultiExperiment Viewer (MeV V.4.9.0) software.\nTo distinguish the effect of various FJU-Cs on LPS-induced inflammation, the cell culture media of RAW264.7 macrophages treated with various conditions were harvested and analyzed by using a mouse cytokine antibody array (left panel of FIG. 3). The signal intensities on the array membranes were quantified by densitometry, and the changes in different cytokines are represented as a heat map (right panel of FIG. 3)."}, "RAW264.7 macrophages [2]": {"tested_on": "RAW264.7 macrophages", "test": "Quantitative real-time PCR of inflammatory mediators and cytokines", "assay_type": "cell-based, mouse", "details": "LPS-induced", "procedure": "RNA was isolated from cells using TRIzol reagent (Invitrogen, Carlsbad, CA, USA) as previously described.^32 The concentration of the isolated RNA was measured using an Epoch microplate spectrophotometer (BioTek, Winooski, VT, USA). One microgram of RNA was reverse-transcribed to cDNA with random primers and an MMLV RT kit (Epicenter Biotechnologies, Madison, WI, USA). The mixture (2 μl) was added to PCR reagents to measure the target mRNA level with specific primers (Table 1). All real-time PCRs were performed in a volume of 20 μl containing 10 μl of Real-time PCR SYBR Green master mix (Toyobo, Osaka, Japan) using a PikoReal 96 Real-Time PCR System (Thermo Fisher Scientific Inc.), according to our previously described method.^33 The expression of β-actin was used as an internal control for RNA quantification."}, "[3]": {"tested_on": "C57BL/6 mice with LPS-induced systemic inflammation", "test": "Histological examination of lung specimens (H&E)", "assay_type": "in vivo, mouse", "details": "FJU-C28 5 mg/kg, LPS 7.5 mg/kg, FIG. 12A", "procedure": "Ten-week-old male C57BL/6 mice from BioLasco Taiwan Co., Ltd. (Taipei, Taiwan) were used in the present study. The mice were maintained under standard laboratory conditions as described in a previous study.^34 All animal procedures were approved by the Institutional Animal Care and Use Committee of Fu Jen Catholic University (IACUC approval number: A10508). We also confirmed that all experiments were performed in compliance with the ARRIVE guidelines. All surgeries were performed under anesthesia, and all efforts were made to minimize the pain and discomfort of the animals. The mice were randomly assigned to three groups: control (n=7), LPS (n=7) and LPS plus C28 (n=8). […] The detailed procedure was performed as described in a previous study.^34 The lung function values, including C chord (lung compliance), IC (inspiratory capacity), VC (vital capacity), FEV100 (forced expiratory volume at 100 ms) and FVC (forced vital capacity), were measured using a Buxco Research System. […]\nTo evaluate the protective effect of FJU-C28 on lung function in mice with systemic inflammation induced by endotoxin, male C57BL/6 mice were administered LPS (7.5 mg/kg) and treated with/without FJU-C28 (5 mg/kg) for 24 hours; subsequently, lung function parameters were measured using a Buxco pulmonary function test system. […]"}, "[4]": {"details": "concentration less than 10 μM, FIG. 2"}},
  "data": [
    {"smiles": "C=CCC1CC(Sc2ccccc2)=CC(=O)N1C(=O)C=C", "note": "(stereo not shown) [FJU-C28]", "values": [
      {"measurement": "LPS-induced secretion of TIMP1, IL-6 and IL-10 (array, in words)", "setting": "RAW264.7 macrophages [1]; FIG. 3", "result": "dramatically suppressed"},
      {"measurement": "LPS-induced secretion/expression of RANTES (array, in words)", "setting": "RAW264.7 macrophages [1]; FIG. 3", "result": "dramatically suppressed"},
      {"measurement": "Protein array, fold change (mean ± S.E.): BLC", "setting": "RAW264.7 macrophages [1]; LPS + compound / control", "result": "1.3 ± 0.1", "unit": "fold change"},
      {"measurement": "Protein array, fold change (mean ± S.E.): CD30 L", "setting": "RAW264.7 macrophages [1]; LPS + compound / control", "result": "1.6 ± 0.9", "unit": "fold change"},
      {"measurement": "Protein array, fold change (mean ± S.E.): Eotaxin", "setting": "RAW264.7 macrophages [1]; LPS + compound / control", "result": "10.3 ± 6.1", "unit": "fold change"},
      {"measurement": "Protein array, fold change (mean ± S.E.): Eotaxin-2", "setting": "RAW264.7 macrophages [1]; LPS + compound / control", "result": "2.0 ± 1.0", "unit": "fold change"},
      {"measurement": "Protein array, fold change (mean ± S.E.): Fas ligand", "setting": "RAW264.7 macrophages [1]; LPS + compound / control", "result": "1.1 ± 0.8", "unit": "fold change"},
      {"measurement": "Protein array, fold change (mean ± S.E.): Fractalkine", "setting": "RAW264.7 macrophages [1]; LPS + compound / control", "result": "1.0 ± 0.6", "unit": "fold change"},
      {"measurement": "Protein array, fold change (mean ± S.E.): GCSF", "setting": "RAW264.7 macrophages [1]; LPS + compound / control", "result": "20.1 ± 1.9", "unit": "fold change"},
      {"measurement": "Protein array, fold change (mean ± S.E.): GM-CSF", "setting": "RAW264.7 macrophages [1]; LPS + compound / control", "result": "1.5 ± 0.4", "unit": "fold change"},
      {"measurement": "Protein array, fold change (mean ± S.E.): I-TAC", "setting": "RAW264.7 macrophages [1]; LPS + compound / control", "result": "0.8 ± 0.3", "unit": "fold change"},
      {"measurement": "Protein array, fold change (mean ± S.E.): IL-1B", "setting": "RAW264.7 macrophages [1]; LPS + compound / control", "result": "2.6 ± 0.0", "unit": "fold change"},
      {"measurement": "Protein array, fold change (mean ± S.E.): IL-1α", "setting": "RAW264.7 macrophages [1]; LPS + compound / control", "result": "1.1 ± 0.1", "unit": "fold change"},
      {"measurement": "Protein array, fold change (mean ± S.E.): IL-2", "setting": "RAW264.7 macrophages [1]; LPS + compound / control", "result": "2.1 ± 0.2", "unit": "fold change"},
      {"measurement": "Protein array, fold change (mean ± S.E.): IL-3", "setting": "RAW264.7 macrophages [1]; LPS + compound / control", "result": "1.1 ± 0.2", "unit": "fold change"},
      {"measurement": "Protein array, fold change (mean ± S.E.): IL-4", "setting": "RAW264.7 macrophages [1]; LPS + compound / control", "result": "1.2 ± 0.2", "unit": "fold change"},
      {"measurement": "Protein array, fold change (mean ± S.E.): IL-6", "setting": "RAW264.7 macrophages [1]; LPS + compound / control", "result": "1.1 ± 0.2", "unit": "fold change"},
      {"measurement": "Protein array, fold change (mean ± S.E.): IL-9", "setting": "RAW264.7 macrophages [1]; LPS + compound / control", "result": "0.9 ± 0.3", "unit": "fold change"},
      {"measurement": "Protein array, fold change (mean ± S.E.): IL-10", "setting": "RAW264.7 macrophages [1]; LPS + compound / control", "result": "0.3 ± 0.2", "unit": "fold change"},
      {"measurement": "Protein array, fold change (mean ± S.E.): IL-12 p70", "setting": "RAW264.7 macrophages [1]; LPS + compound / control", "result": "0.8 ± 0.2", "unit": "fold change"},
      {"measurement": "Protein array, fold change (mean ± S.E.): IL-12 p-40 p70", "setting": "RAW264.7 macrophages [1]; LPS + compound / control", "result": "0.9 ± 0.1", "unit": "fold change"},
      {"measurement": "Protein array, fold change (mean ± S.E.): IL-13", "setting": "RAW264.7 macrophages [1]; LPS + compound / control", "result": "0.6 ± 0.0", "unit": "fold change"},
      {"measurement": "Protein array, fold change (mean ± S.E.): IL-17", "setting": "RAW264.7 macrophages [1]; LPS + compound / control", "result": "7.8 ± 5.3", "unit": "fold change"},
      {"measurement": "Protein array, fold change (mean ± S.E.): INF gamma", "setting": "RAW264.7 macrophages [1]; LPS + compound / control", "result": "1.4 ± 0.2", "unit": "fold change"},
      {"measurement": "Protein array, fold change (mean ± S.E.): KC", "setting": "RAW264.7 macrophages [1]; LPS + compound / control", "result": "0.8 ± 0.4", "unit": "fold change"},
      {"measurement": "Protein array, fold change (mean ± S.E.): LIX", "setting": "RAW264.7 macrophages [1]; LPS + compound / control", "result": "1.0 ± 0.2", "unit": "fold change"},
      {"measurement": "Protein array, fold change (mean ± S.E.): Leptin", "setting": "RAW264.7 macrophages [1]; LPS + compound / control", "result": "3.2 ± 0.8", "unit": "fold change"},
      {"measurement": "Protein array, fold change (mean ± S.E.): Lymphotactin", "setting": "RAW264.7 macrophages [1]; LPS + compound / control", "result": "0.7 ± 0.2", "unit": "fold change"},
      {"measurement": "Protein array, fold change (mean ± S.E.): MCP-1", "setting": "RAW264.7 macrophages [1]; LPS + compound / control", "result": "1.7 ± 0.2", "unit": "fold change"},
      {"measurement": "Protein array, fold change (mean ± S.E.): MCSF", "setting": "RAW264.7 macrophages [1]; LPS + compound / control", "result": "0.8 ± 0.1", "unit": "fold change"},
      {"measurement": "Protein array, fold change (mean ± S.E.): MIP-1α", "setting": "RAW264.7 macrophages [1]; LPS + compound / control", "result": "1.0 ± 0.2", "unit": "fold change"},
      {"measurement": "Protein array, fold change (mean ± S.E.): MIP-1γ", "setting": "RAW264.7 macrophages [1]; LPS + compound / control", "result": "1.2 ± 0.2", "unit": "fold change"},
      {"measurement": "Protein array, fold change (mean ± S.E.): RANTES", "setting": "RAW264.7 macrophages [1]; LPS + compound / control", "result": "1.3 ± 0.2", "unit": "fold change"},
      {"measurement": "Protein array, fold change (mean ± S.E.): SDF1", "setting": "RAW264.7 macrophages [1]; LPS + compound / control", "result": "0.9 ± 0.2", "unit": "fold change"},
      {"measurement": "Protein array, fold change (mean ± S.E.): STNFRI", "setting": "RAW264.7 macrophages [1]; LPS + compound / control", "result": "1.0 ± 0.0", "unit": "fold change"},
      {"measurement": "Protein array, fold change (mean ± S.E.): STNFRII", "setting": "RAW264.7 macrophages [1]; LPS + compound / control", "result": "2.1 ± 0.1", "unit": "fold change"},
      {"measurement": "Protein array, fold change (mean ± S.E.): TCA-3", "setting": "RAW264.7 macrophages [1]; LPS + compound / control", "result": "0.9 ± 0.1", "unit": "fold change"},
      {"measurement": "Protein array, fold change (mean ± S.E.): TECK", "setting": "RAW264.7 macrophages [1]; LPS + compound / control", "result": "0.5 ± 0.3", "unit": "fold change"},
      {"measurement": "Protein array, fold change (mean ± S.E.): TIMP-1", "setting": "RAW264.7 macrophages [1]; LPS + compound / control", "result": "1.1 ± 0.1", "unit": "fold change"},
      {"measurement": "Protein array, fold change (mean ± S.E.): TIMP-2", "setting": "RAW264.7 macrophages [1]; LPS + compound / control", "result": "0.0 ± 0.0", "unit": "fold change"},
      {"measurement": "Protein array, fold change (mean ± S.E.): TNFα", "setting": "RAW264.7 macrophages [1]; LPS + compound / control", "result": "21.0 ± 0.8", "unit": "fold change"},
      {"measurement": "mRNA level of COX2", "setting": "RAW264.7 macrophages [2]; FIG. 2", "result": "downregulated in a concentration-dependent manner"},
      {"measurement": "mRNA level of iNOS", "setting": "RAW264.7 macrophages [2]; FIG. 2", "result": "downregulated in a concentration-dependent manner"},
      {"measurement": "mRNA level of IL-1β", "setting": "RAW264.7 macrophages [2]; [4]", "result": "concentration-dependently decreased"},
      {"measurement": "mRNA level of IL-6", "setting": "RAW264.7 macrophages [2]; [4]", "result": "concentration-dependently decreased"},
      {"measurement": "gene expression of IL-6", "setting": "RAW264.7 macrophages [2]; dose higher than 5 μM", "result": "noticeably inhibited"},
      {"measurement": "gene expression of iNOS", "setting": "RAW264.7 macrophages [2]; dose higher than 5 μM", "result": "noticeably inhibited"},
      {"measurement": "alveolar structure in lung tissue", "setting": "[3]", "result": "sustained most of the alveolar structure"},
      {"measurement": "neutrophil infiltration in the interstitium of the lung", "setting": "[3]", "result": "reduced the neutrophil infiltration in the interstitium"}
    ]}
  ]
}
